# Assay results reported in patent US20080026456A1, “Method and apparatus for reducing pathogens in a biological sample” (priority 2002, published 2008).
# Experiments:
# [1] = tested on: cultured cells and embryos; parameters: dose or concentration left out as unconfirmed; conditions: 37° C.; cited from earlier work
# [2] = tested on: Campylobacter fetus isolate [4914]; type: cell-based
# [3] = tested on: Brucella abortus Strain 19; type: cell-based
# Mycoplasma species = conditions: without detrimentally affecting embryonic development in vitro; cited from earlier work
# bovine sperm = assay: Sperm viability with trypsin in density gradient (later studies)
# [4] = tested on: confluent buffalo rat liver cell monolayers; assay: Trypsin activity after dilution: detachment of confluent somatic cell monolayers; type: cell-based; conditions: final concentrations 0.125% and […]
# [5] = tested on: fresh semen of domestic bulls (Bos taurus) and gaur (Bos gaur) bulls; assay: Sperm survival after Percoll column with trypsin, fresh bull and gaur semen; type: cell-based; conditions: 0.125% trypsin in 45% Percoll column
Molecule,sensitivity of isolate to antibiotic [2],sensitivity of isolate to antibiotic [3],also measured
NC[C@H]1O[C@H](O[C@H]2[C@H](O)[C@@H](O[C@H]3O[C@H](CO)[C@@H](O)[C@H](N)[C@H]3O)[C@H](N)C[C@@H]2N)[C@H](O)[C@@H](O)[C@@H]1O [kanamycin],,,toxicity to cultured cells and embryos [1]: very little toxicity
CCC[C@@H]1C[C@@H](C(=O)N[C@@H]([C@H]2O[C@H](SC)[C@H](O)[C@@H](O)[C@H]2O)[C@@H](C)O)N(C)C1 [lincomycin],sensitive,resistant,
CN[C@@H]1[C@H](O)[C@H](NC)[C@H]2O[C@@]3(O)C(=O)C[C@@H](C)O[C@H]3O[C@@H]2[C@H]1O [spectinomycin],intermediate,sensitive,
CC[C@H]1OC(=O)C[C@@H](O)[C@H](C)[C@@H](O[C@@H]2O[C@H](C)[C@@H](O[C@H]3C[C@@](C)(O)[C@@H](O)[C@H](C)O3)[C@H](N(C)C)[C@H]2O)[C@@H](CC=O)C[C@@H](C)C(=O)/C=C/C(C)=C/[C@@H]1CO[C@@H]1O[C@H](C)[C@@H](O)[C@@H](OC)[C@H]1OC [tylosin],intermediate,intermediate,minimal concentration for eliminating Mycoplasma species from bovine embryos (Mycoplasma species): 200 µg/mL
gentamicin,sensitive,sensitive,
trypsin,,,"effect of increasing trypsin concentration on sperm (bovine sperm): no detrimental effects; enzymatic activity after dilution with Percoll, Isolate or egg yolk-based cryodiluents [4]: did not diminish enzymatic activity; effect on sperm motility, viability, acrosomal integrity [5]: no detrimental affects"
